Test results: patent US20230330093A1, “APPLICATION OF NITROGEN-CONTAINING SATURATED HETEROCYCLIC COMPOUND” (SHANGHAI PHARMACEUTICALS HOLDING CO., LTD., priority 2020, published 2023)
Several values for one entry are separate records, joined by “and”; a condition that tells them apart may be missing. Identical values can stand only once.

Tested on: rhesus monkeys with spontaneous chronic kidney disease
Test: Effect on serum K+, 8-week administration
Settings: 5mg/kg (n = 6)
Protocol: In the trial, animals were brought in three stages. In the first stage, there were two groups: 3 animals (No. 257, No. 4721, No. 287) in a group with 5 mg/kg of the malate of compound of formula I, and 2 animals (No. 1029, No. 4713) in the placebo group. […] In the third stage, there were two groups: 5 animals (No. 4829, No. 6501, No. 287, No. 4721, No. 2091) in a group with 2 mg/kg of the malate of compound of formula I, and 5 animals (No. 1567, No. 4861, No. 5453, No. 6653, No. 5073) in a group with 1 mg/kg of the malate of compound of formula I.
Serum potassium, twice before administration, once every 2 weeks during the administration period;
Blood biochemical and urine index detection equipment: Roche cobas6000 analyzer series C501 module detection. ELISA kit was used for NT-proBNP test.

K^+ (2 weeks, Mean ± SD): 4.98 ± 0.73 mmol/L
K^+ (4 weeks, Mean ± SD): 4.49 ± 0.62 mmol/L
K^+ (6 weeks, Mean ± SD): 4.57 ± 0.66 mmol/L
K^+ (8 weeks, Mean ± SD): 4.49 ± 0.70 mmol/L
K^+ (Baseline 1, Mean ± SD): 4.89 ± 0.35 mmol/L
K^+ (Baseline 2, Mean ± SD): 4.81 ± 0.48 mmol/L
SMILES: COC(=O)NCCCn1nc(C(C)N(C(=O)C2CNCCO2)C2CC2)c2ccc(C)nc21.O=C(O)CC(O)C(=O)O (stereo not drawn) [malate of compound of Formula 1]
K^+ (2 weeks, individual animals): 4.91 mmol/L and 4.55 mmol/L and 6.07 mmol/L and 5.37 mmol/L and 5.05 mmol/L and 3.93 mmol/L
K^+ (4 weeks, individual animals): 4.33 mmol/L and 4.55 mmol/L and 5.46 mmol/L and 4.50 mmol/L and 4.61 mmol/L and 3.51 mmol/L
K^+ (6 weeks, individual animals): 4.53 mmol/L and 4.16 mmol/L and 4.77 mmol/L and 4.76 mmol/L and 5.58 mmol/L and 3.60 mmol/L
K^+ (8 weeks, individual animals): 4.26 mmol/L and 4.64 mmol/L and 4.49 mmol/L and 5.28 mmol/L and 5.00 mmol/L and 3.26 mmol/L
K^+ (Baseline 1, individual animals): 4.78 mmol/L and 4.54 mmol/L and 4.93 mmol/L and 5.41 mmol/L and 5.16 mmol/L and 4.52 mmol/L
K^+ (Baseline 2, individual animals): 5.43 mmol/L and 4.74 mmol/L and 4.03 mmol/L and 5.20 mmol/L and 4.75 mmol/L and 4.72 mmol/L
